This is an account of results in patent US6028077A, “Crambescidin compounds” (priority 1998, dated 2000).

Like-named read-outs stand apart in the source and are kept apart here.

As usually defined, the inhibition is the percentage by which the read-out fell short of the control. Lower therefore signals a response near the control.

Data set [1] deals with L1210 murine leukemia cells. Put plainly: Cytotoxicity (parallel assay) against L1210 murine leukemia cells. The data set is classed as cell-based. As to conditions: for cytotoxic activity compared with other compounds / activity relative to crambescidin 816 (1): L1210 cells; for inhibition at 0.1 µg/mL / inhibition at 0.25 µg/mL / inhibition at 0.5 µg/mL / inhibition at 1 µg/mL: Mus musculus; for inhibition at 0.1 µg/mL: L1210, 0.1 μg/mL; for inhibition at 0.25 µg/mL: L1210, 0.25 μg/mL; for inhibition at 0.5 µg/mL: L1210, 0.5 μg/mL; for inhibition at 1 µg/mL: L1210, 1.0 μg/mL. The source says: However, crambescidins 674 (9) and 687 (10) without a spermidine derivative unit are less than 5 times as active than 1.
Cytotoxicities against L1210 Cells for Compounds 1, 6-12,

The subject of another data set is L1210 cells. As to conditions: cited from earlier work.
For data set [2] the following is noted: virus not named; cited from earlier work.
Data set [3] concerns Herpes simple-x, Type I virus (HSV-I). As to conditions: cited from earlier work.
The subject of a further data set is Ca^2+ channel. As to conditions: cited from earlier work.
Another data set relates to Rhodotorula glutinis. Put plainly: Antimicrobial assay against Rhodotorula glutinis. Format: cell-based.
A further data set relates to P388 cells. As to conditions: cited from earlier work.
Another data set relates to KB cells. Particulars: cited from earlier work.
Another data set concerns Candida albicans. Particulars: cited from earlier work.
Another data set relates to HSV. As to conditions: cited from earlier work.
Setting [4] is: times as active than 1, without a spermidine derivative unit.

Regarding `CCC1C=CCCC2(CC3CCC4C(C(=O)OCCCCCCCCCCCCCCCC(=O)O)C5(CCCC(C)O5)NC(=N2)N34)O1` (centres unmarked) [Compound 12, 13,14,15-Isocrambescidin 657], the “Inhibition (%)” value is listed as 0% in data set [1] (0.1 μg/mL), 0% in data set [1] (0.25 μg/mL), 0% in data set [1] (0.5 μg/mL) and 100% in data set [1] (1.0 μg/mL). Further, the “inhibition at 5 μg/mL” value in data set [1] (5 μg/mL) is recorded as “no inhibition”. Also, the “cytotoxic activity compared with other compounds” value in data set [1] (listed as 13, 14, 15-Isocrambescidin 657 (12)) was “substantially less active”.
In the case of `CCC1C=CCCC2(CC3CCC4C(C(=O)OCCCCCCCCCCCCCCCC(=O)N(CCCN)CC(O)CCN)C5(CCCC(C)O5)NC(=N2)N34)O1` (centres unmarked) [Compound 5, 13, 14, 15-Isocrambescidin 800], in the data set on L1210 cells, the “growth inhibition / cytotoxicity, L1210 cells” value is “substantially less cytotoxic”. In addition, the antiviral activity entry in data set [2] is on record as “no observed antiviral activity”.
Turning to `CCC1C=CCCC2(CC3CCC4(O)C(C(=O)OCCCCCCCCCCCCCCCC(=O)OC)C5(CCCC(C)O5)NC(=N2)N34)O1` (centres unmarked) [Compound 10, Crambescidin 687], in data set [1] (setting [4]), the “activity relative to crambescidin 816 (1)” value was “less than 5 times”. For the same molecule, in [1], the inhibition at 0.1 µg/mL stood at 0%, 0.25 µg/mL produced 0% inhibition, the inhibition at 0.5 µg/mL is 0% and the inhibition at 1 µg/mL came out at 100%.
Turning to `CCC1C=CCCC2(CC3CCC4C(C(=O)OCCCCCCCCCCCCCCCC(=O)OC)C5(CCCC(C)O5)NC(=N2)N34)O1` (centres unmarked) [Methyl 11], in data set [1], the inhibition at 0.1 µg/mL came to 0%, the inhibition at 0.25 µg/mL stood at 0%, testing at 0.5 µg/mL gave an inhibition of 0% and 1 µg/mL produced 0% inhibition.
`CCC1C=CCCC2(CC3CCC4C(C(=O)OCCCCCCCCCCCCCCCC(=O)O)C5(CCCC(C)O5)NC(=N2)N34)O1` (centres unmarked) [Compound 11, Crambescidin 657]: the “Inhibition (%)” value in data set [1] (0.1 μg/mL) amounted to 93%. In data set [1] (listed as crambescidin 657 (11)), the “cytotoxic activity compared with other compounds” value is “most cytotoxic compound in the test”. Besides, in data set [1], the inhibition at 1 µg/mL was 100%.
For `CCC1C=CCCC2(CC3CCC4(O)C(C(=O)OCCCCCCCCCCCCCCCC(=O)N(CCCN)CC(O)CCN)C5(CCCC(C)O5)NC(=N2)N34)O1` (centres unmarked) [Compound 1, crambescidin 816, reference compound], in data set [1], the inhibition at 0.1 µg/mL turned out to be 0%, the inhibition at 0.25 µg/mL came out at 70%, the inhibition at 0.5 µg/mL came out at 97% and at 1 µg/mL the inhibition was 100%. Besides, the “antiviral activity against HSV-I” value in data set [3] is on record as “exhibited antiviral activity”. Further, the “Ca^2+ channel blocker” value in the data set with Ca^2+ channel is on record as “potent calcium channel blocker”. For the same molecule, the “Ca^2+ channel blocker” value with Ca^2+ channel (listed as crambescidin 816 (1)) is given as “strong Ca^2+ channel blocker”.
Turning to `CCC1C=CCCC2(CC3CCC4C(C(=O)OCCCCCCCCCCCCCCCC(=O)N(CCCN)CCCCN)C5(CCCC(C)O5)NC(=N2)N34)O1` (centres unmarked) [Compound 6, ptilomycalin A], in data set [1], the “cytotoxic activity compared with other compounds” value is on record as “slightly more active than 1”, the inhibition at 0.1 µg/mL is 20%, the inhibition at 0.25 µg/mL was 60% and the inhibition at 0.5 µg/mL is 99%. In addition, the inhibition at 1 µg/mL in data set [1] was 100%. Besides, the “antimicrobial activity at 2 μg/well” value with Rhodotorula glutinis was “active”. Besides, in the data set on L1210 cells, the “growth inhibition / cytotoxicity, L1210 cells” value is listed as “shown cytotoxicity”. Further, the “cytotoxicity, P388 cells” value in the data set on P388 cells is listed as “shown cytotoxicity”. Further, the “cytotoxicity, KB cells” value in the data set with KB cells was “shown cytotoxicity”. The “antifungal activity against Candida albicans” value with Candida albicans is on record as “antifungal activity”. Further, the “antiviral activity (HSV)” value in the data set with HSV was “antiviral activity (HSV)”.
Take `CCC1C=CCCC2(CC3CCC4(O)C(C(=O)OCCCCCCCCCCCCCCCC(=O)O)C5(CCCC(C)O5)NC(=N2)N34)O1` (centres unmarked) [Compound 9, Crambescidin 673]: the “activity relative to crambescidin 816 (1)” value in data set [1] (setting [4]) is on record as “less than 5 times”. Moreover, in data set [1], 0.1 µg/mL produced 0% inhibition, at 0.25 µg/mL the inhibition was 0%, testing at 0.5 µg/mL gave an inhibition of 0% and 1 µg/mL produced 100% inhibition.
As to `CCC1C=CCCC2(CC3CCC4C(C(=O)OCCCCCCCCCCCCCCCC(=O)N(CCCN)CC(Cl)CCN)C5(CCCC(C)O5)NC(=N2)N34)O1` (centres unmarked) [Compound 8, Crambescidin 818], the “activity relative to crambescidin 816 (1)” value in data set [1] (times more active than 1) is recorded as “about 5 times”. In [1], this molecule registered an inhibition at 0.1 µg/mL of 90%, an inhibition at 0.25 µg/mL of 95%, an inhibition at 0.5 µg/mL of 95% and an inhibition at 1 µg/mL of 100%.
Consider `CCC1C=CCCC2(CC3CCC4(O)C(C(=O)OCCCCCCCCCCCCCCCC(=O)N(CCCN)CC(Cl)CCN)C5(CCCC(C)O5)NC(=N2)N34)O1` (centres unmarked) [Compound 7, Crambescidin 834], for which the “activity relative to crambescidin 816 (1)” value in [1] (times more active than 1) was “about 5 times”. In [1], this molecule had an inhibition at 0.1 µg/mL of 90%, an inhibition at 0.25 µg/mL of 95%, an inhibition at 0.5 µg/mL of 95% and an inhibition at 1 µg/mL of 100%.
